Measurements from patent US9439982B2, “Fluorescent cyanine-polyamine derivatives as a diagnostic probe” (PIERRE FABRE MEDICAMENT, priority 2010, dated 2016).
Values joined by “and” are separate entries in the source; they are usually repeats but may differ in a detail not shown here. Equal entries are not always repeated.

What was measured:
[1] = Tolerance of the injection of increasing doses of the probe in healthy mice; type: in vivo; conditions: healthy male C57B16 mice, 25, 50 and 100 μg
Protocol: (§1) 6 healthy male C57B16 mice, aged 11 weeks, were used to evaluate the tolerance of the injection of increasing doses of the probe of example 7 (F98942) (25, 50 and 100 μg). 11 male C57B16 mice aged 10 weeks were grafted subcutaneously on the right rear paw with 2.5.10^5 B16/F10-Luc mouse melanoma cells.
(§2) The probe F98942 is placed in solution in sterile 5% glucose serum extemporaneously.

[2] = system: B16/F10-Luc mouse melanoma cells; experiment: In vivo detection by fluorescence imaging of the probe accumulating in a tumour on an animal; conditions: for Tumour fixation: Fluorescence at t = 24 hrs: individual mice, 24 hrs post-injection, subcutaneous B16/F10-Luc tumour in C57B16 mice; for Tumour fixation: Mean fluorescence: 24 hrs; for Detection of the probe's fluorescence in the tumour in vivo: tumour B16F10 in mice, fluorescence imaging after intravenous injection
Protocol: as §1, §2
The mice were injected with 50 μg or 25 μg of F98942 or PBS (Phosphate Buffered Saline) intravenously. They were then anaesthetised by isoflurane gas inhalation (3% isoflurane/oxygen) prior to the fluorescence imaging examination 24 and 48 hours post-injection. After 48 hours, the tumours were removed and analysed by means of fluorescence imaging. […]

SMILES	Tolerance of injection [1]	Tumour fixation: Fluorescence at t = 24 hrs ([2]; 25 μg intravenously)	Tumour fixation: Fluorescence at t = 24 hrs ([2]; 50 μg intravenously)	Tumour fixation: Mean fluorescence ([2]; mean of mice 1-4, 50 μg intravenously)	Tumour fixation: Mean fluorescence ([2]; mean of mice 5-6, 25 μg intravenously)	Detection of the probe's fluorescence in the tumour in vivo [2]
CCCCN1/C(=C/C=C/C=C/C=C/C2=[N+](CCCCCC(=O)NCCCNCCCCNCCCN)c3ccccc3C2(C)C)C(C)(C)c2ccccc21.[Br-] [Example F98942, 1-(5-{3-[4-(3-aminopropylamino)butylamino]-propylcarbamoyl}-pentyl)-2-{(1E,3E,5E)-7-[1-butyl-3,3-dimethyl-1,3-dihydroindol-(2E)-ylidene]-hepta-1,3,5-trienyl}-3,3-dimethyl-3H-indolium bromide]	well-tolerated regardless of the dose	1.52 · 10^7 [p/s/cm^2/sr]/[μW/cm^2] and 2.10 · 10^7 [p/s/cm^2/sr]/[μW/cm^2]	3.22 · 10^7 [p/s/cm^2/sr]/[μW/cm^2] and 3.08 · 10^7 [p/s/cm^2/sr]/[μW/cm^2] and 3.12 · 10^7 [p/s/cm^2/sr]/[μW/cm^2] and 3.01 · 10^7 [p/s/cm^2/sr]/[μW/cm^2]	3.14 · 10^7 [p/s/cm^2/sr]/[μW/cm^2]	1.81 · 10^7 [p/s/cm^2/sr]/[μW/cm^2]	detected
CC1(C)C(/C=C/C2=C(c3ccc(C(=O)NCCCNCCCCNCCCN)cc3)C(=C/C=C3/N(CCCCS(=O)(=O)O)c4ccc5ccccc5c4C3(C)C)/CCC2)=[N+](CCCCS(=O)(=O)[O-])c2ccc3ccccc3c21 [comparative probe, reference compound]	–	–	–	–	–	not detected
